Consider 2 compounds from article PMC5884906, “Single Administration of HBK-15—a Triple 5-HT1A, 5-HT7, and 5-HT3 Receptor Antagonist—Reverses Depressive-Like Behaviors in Mouse Model of Depression Induced by Corticosterone” (Molecular Neurobiology, 2017).

Experiment [1] has as its target T1, 5-HT3 receptors expressed in guinea pig ileum (Cavia porcellus, UniProt O70212).
T1 construct: A segment (15 cm) of male guinea pig ileum was excised from the small intestine; from tissue; host or cells: isolated male guinea pig ileum segments in an organ bath
T1 sequence (O70212 20-490): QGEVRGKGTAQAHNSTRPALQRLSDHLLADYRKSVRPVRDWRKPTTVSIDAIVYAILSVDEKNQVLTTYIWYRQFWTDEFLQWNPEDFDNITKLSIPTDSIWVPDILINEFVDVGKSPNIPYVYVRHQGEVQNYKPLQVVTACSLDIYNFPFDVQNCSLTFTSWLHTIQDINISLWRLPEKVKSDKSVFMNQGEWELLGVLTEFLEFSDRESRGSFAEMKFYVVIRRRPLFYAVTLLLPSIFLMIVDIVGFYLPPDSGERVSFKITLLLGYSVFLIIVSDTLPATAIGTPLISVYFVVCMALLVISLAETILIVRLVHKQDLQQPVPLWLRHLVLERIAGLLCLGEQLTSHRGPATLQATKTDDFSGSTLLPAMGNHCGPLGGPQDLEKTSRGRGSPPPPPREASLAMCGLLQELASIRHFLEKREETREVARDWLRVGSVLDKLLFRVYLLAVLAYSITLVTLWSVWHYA
On the set-up: method as in PMID 25847619. The settings on record: functional affinity; cited from earlier work.

For experiment [2], the system named is corticosterone-treated mice. In words: spontaneous locomotor activity, single administration. It counts as in vivo. The note with it: single 1 mg/kg i.p. in corticosterone-treated mice; 4 min. The method, then: Mice were injected with corticosterone (s.c., 20 mg/kg) at random times during the light phase for consecutive 21 days (Fig. 1c). The dose and route of administration of corticosterone were based on studies performed by Zhao and colleagues. […] Control mice received (i.p.) saline. The experimental groups consisted of eight randomly selected animals. We chose the dose of HBK-15 that was active in the chronic experiments (i.e., 1.25 mg/kg). The dose of ketamine was based on the studies performed by Pazini and colleagues. Animals were tested in the forced swim test and spontaneous locomotor activity test. After behavioral testing, mice were scarified and their hippocampi collected for biochemical analysis.
The locomotor activity was performed as previously described. Locomotor activity was recorded individually for each mouse using activity cages made of clear Perspex (40 cm × 40 cm × 31 cm, Activity Cage 7441, Ugo Basile, Italy). The cages were supplied with I.R. horizontal beam emitters connected to a counter for the recording of light-beam interruptions. Each mouse was placed in a cage for a 30-min habituation period. After that time, the number of crossings of photobeams was measured for 6 min (chronic studies) or for 4 min (acute experiments; i.e., the time equal to the observation period in the forced swim test). The cages were disinfected with 70% ethanol after each mouse.

Experiment [3] deals with corticosterone-treated mice. Nature of the experiment: forced swim test, single administration, corticosterone model. It is filed as in vivo. The note with it: single 1 mg/kg i.p., 30 min before the test. The method, then: (§1) Mice were injected with corticosterone (s.c., 20 mg/kg) at random times during the light phase for consecutive 21 days (Fig. 1c). The dose and route of administration of corticosterone were based on studies performed by Zhao and colleagues. After the end of the procedure, next day 30 min before the test, corticosterone-treated mice were given (i.p.) saline, HBK-15 (1.25 mg/kg), fluoxetine (10 mg/kg), or ketamine (1 mg/kg) (Fig. 1c). Control mice received (i.p.) saline. The experimental groups consisted of eight randomly selected animals. We chose the dose of HBK-15 that was active in the chronic experiments (i.e., 1.25 mg/kg). The dose of ketamine was based on the studies performed by Pazini and colleagues. Animals were tested in the forced swim test and spontaneous locomotor activity test. After behavioral testing, mice were scarified and their hippocampi collected for biochemical analysis.
Forced swim test was performed according to the method described by Porsolt and colleagues and previously described. Mice were placed individually for 6 min in glass cylinders (height 25 cm, diameter 10 cm) containing […] (23–25 °C). The total time of immobility was recorded during the final 4 min of the test. The experiments were recorded and scored using aLab.io software by a trained observer blind to the treatments.

Experiment [4] deals with BDNF level in the hippocampus. Nature of the experiment: BDNF level in the hippocampus (ELISA), single administration. The settings on record: single 1 mg/kg i.p., corticosterone-treated mice. It counts as in vivo, mice. The method, then: as §1
After the behavioral assessments, mice were sacrificed, and their brains were rapidly removed and chilled in an ice-cold saline solution. The hippocampi were dissected on a cold plate, frozen, and stored at −80 °C until assay. On the day of experiments, tissues were thawed on ice and homogenized (1:9 w/v) in phosphate-buffered saline (4 °C) and protease inhibitor cocktail was added. The 10% homogenates were prepared and homogenized for 30 s with TissueRuptor homogenizer. The homogenized tissues were centrifuged (2500×g at 4 °C for 20 min), and the supernatants were collected for further assays.
Protein concentrations of BDNF and NGF in homogenates from hippocampi were determined using the enzyme-linked immunosorbent assay (ELISA) kits (BDNF: DZE201020014, SunRed Biotechnology Company; NGF: MBS825100, MyBioSource) according to the manufacturer’s instructions. […] The samples were analyzed in duplicates, and the mean concentrations were calculated. […] The intensity of the color was read at 450 nm. Absorbance was measured in a multifunction plate reader (POLARstar Omega, BMG Labtech, Germany). […]
(In an ELISA, binding on a coated surface is turned into a signal by an enzyme label.)

Marks after values point to notes of the source that are not given here.

As to `Cc1nccn1CC1CCc2c(c3ccccc3n2C)C1=O` (stereo not shown) [Ondansetron], in experiment [1], the “5-HT3 receptor pK B ± S.E.M” value is on record as 7.111 ± 0.12^a.
With `CNC1(c2ccccc2Cl)CCCCC1=O` (stereo not shown) [ketamine], the “Number of crossings ± S.E.M” value in experiment [2] is 248.7 ± 25.3. Also, in experiment [3], the “effect on corticosterone-induced increase in immobility” value is reported as “reversed an increase in immobility”. Besides, the “increase in BDNF level in the hippocampus compared with controls” value in experiment [4] was determined as 33%.
